Results as given in US20080262097A1, “Formulations” (priority 2005, published 2008).
≈ marks a conversion by molar mass, not a printed value. Read-outs that look alike come from different tables or passages of the source.

Legend:
[1] = test system: S. aureus ATCC 29213; test: MBC assay; format: cell-based, Staphylococcus aureus
Description: 1. Staphylococcus aureus—the principal staphylococcal test micro-organism used in these studies was Staphylococcus aureus ATCC 29213. This strain is the one recommended for QC/QA purposes in Minimum Inhibitory Concentration (MIC) assays by the US Clinical and Laboratory Standards Institute (formerly the NCCLS), an FDA-recognised body. […] The staphylococci and enterococci were cultured and maintained on Mueller-Hinton Medium (agar and broth) at pH 7.2; they were incubated aerobically at 37° C. for 24 hours. This assay, normally carried out after an MIC assay, determines the minimum concentration of a compound that is lethal to the micro-organism being tested. […] These samples were then individually sub-cultured on non-selective agar medium, under the incubation conditions described above. Following incubation they were examined visually for bacterial growth.

[2] = test system: S. aureus ATCC 29213; test: Synergy disc diffusion assay (SDDA); format: cell-based, Staphylococcus aureus; conditions: for SDDA area increase / SDDA increase: quinone + BP; for SDDA area increase: over larger single-compound zone; for SDDA increase: over larger single-compound zone diameter; for SDDA with BP: quinone combined with BP on one disc, 200 μg of each (thymoquinone 50 μg)
From the text: 1. Staphylococcus aureus—the principal staphylococcal test micro-organism used in these studies was Staphylococcus aureus ATCC 29213. This strain is the one recommended for QC/QA purposes in Minimum Inhibitory Concentration (MIC) assays by the US Clinical and Laboratory Standards Institute (formerly the NCCLS), an FDA-recognised body. S. aureus ATCC 29213 is susceptible to beta-lactam antibiotics such as methicillin and to many other antibiotics in clinical use worldwide today. The staphylococci and enterococci were cultured and maintained on Mueller-Hinton Medium (agar and broth) at pH 7.2; they were incubated aerobically at 37° C. for 24 hours. This is a variation on the DDA method, in which two compounds are tested together for their combined antimicrobial activity. It provides a qualitative indication as to whether the compounds are likely to interact synergistically. Two test compounds A and B were placed on a single paper disc and the above described DDA procedure repeated. An increase in diameter of the zone of inhibition, compared to the greater of the zone diameters for the two compounds individually, was taken to indicate potential antimicrobial synergy. […] The larger the increase in zone size, the greater the likelihood of a synergistic interaction between the two test compounds. Each of the quinones was then subjected, in combination with BP, to the SDDA assay described above. In each case, increases in zone diameter (mm) and area (%) were measured with respect to those observed for the compound showing the larger zone diameters during the previous disc diffusion assays on the individual compounds. […] The exceptions were the thymoquinone assays, in which only 50 μg of the benzoquinone was used.

[3] = test system: P. acnes NCTC 737; test: MIC assay; format: cell-based, Propionibacterium acnes
Description: (§1) 2. Propionibacterium spp.—the principal propionibacterial strain used in these studies was Propionibacterium acnes NCTC 737. This is the type strain of the genus; it is fully susceptible to antibiotics.
(§2) The Propionibacterium spp organisms were cultured and maintained on Wilkins-Chalgren Anaerobe Medium (agar and broth) at pH 6.0; cultures were incubated anaerobically at 37° C. for 72 hours.
This is a standard international method for quantitatively assessing the antimicrobial activity of a compound in a liquid medium. The method used a 96-well microtitre plate, capable of holding about 200 μl of liquid per well. […] The culture media were as described above for the relevant test organisms.
The wells were inoculated with a liquid suspension of freshly grown micro-organism and incubated under the conditions described above. After incubation, the microtitre plate was examined visually (with the aid of a light box) for cell pellets in and/or opaque wells, which would indicate microbial growth. The MIC value was recorded as the lowest concentration of test compound required to inhibit microbial growth, ie, the lowest concentration for which the liquid in the well remained clear.
The assays were conducted in duplicate and included both negative (culture medium only) and positive (culture medium, diluting solvent and inoculum) controls.

[4] = test system: P. acnes NCTC 737; test: MBC assay; format: cell-based, Propionibacterium acnes
Description: as §1, §2
This assay, normally carried out after an MIC assay, determines the minimum concentration of a compound that is lethal to the micro-organism being tested.
These samples were then individually sub-cultured on non-selective agar medium, under the incubation conditions described above. Following incubation they were examined visually for bacterial growth.

[5] = test system: P. acnes NCTC 737; test: Disc diffusion assay (DDA); format: cell-based, Propionibacterium acnes; conditions: 200 μg per disc
Description: 2. Propionibacterium spp.—the principal propionibacterial strain used in these studies was Propionibacterium acnes NCTC 737.
as §2
A sterile paper disc was impregnated with a sample of the test compound and a minimum of 30 minutes allowed for the solvents to evaporate as far as possible. The disc was then placed on an agar plate onto which the test micro-organism had been inoculated. The plate was then incubated under the conditions described above, following which it was examined visually for signs of bacterial growth. […] The diameter of this zone of “inhibition” was measured using a ProtoCOL™ automated zone sizer (Synbiosis, Cambridge, UK).
The area of the zone of inhibition was calculated from the measured zone diameter (D) using the formula π(D/2)^2.
For all (S)DDA assays, 200 μg of each compound was loaded onto each disc.

[6] = test system: S. aureus ATCC 29213; test: Supplemented disc diffusion assay (DDA + salt, lipid or blood); format: cell-based, Staphylococcus aureus; conditions: 200 μg per disc (thymoquinone 50 μg); for DDA + blood: agar supplemented with blood; for DDA + lipid: agar supplemented with lipid; for DDA + salt: agar supplemented with salt
Description: The staphylococci and enterococci were cultured and maintained on Mueller-Hinton Medium (agar and broth) at pH 7.2; they were incubated aerobically at 37° C. for 24 hours. A sterile paper disc was impregnated with a sample of the test compound and a minimum of 30 minutes allowed for the solvents to evaporate as far as possible. The disc was then placed on an agar plate onto which the test micro-organism had been inoculated. The plate was then incubated under the conditions described above, following which it was examined visually for signs of bacterial growth. If the test compound had antimicrobial activity, a circular zone of no growth would be obtained around the disc. The diameter of this zone of “inhibition” was measured using a ProtoCOL™ automated zone sizer (Synbiosis, Cambridge, UK). In general, a greater diameter and/or area of the zone of inhibition indicates a greater antimicrobial activity in the relevant test compound, although other factors such as test compound mobility through the agar gel may also influence the result. Either the DDA or the SDDA tests may be carried out using an agar gel supplemented with blood, lipid and/or salt to simulate some of the major components present in human skin and to assess whether these substances might reduce the antimicrobial activity observed for the test compounds. Performance under these conditions can provide a more reliable indication of activity on topical application. […] MIC, MBC and DDA assays, as described above, were carried out using the test compound benzoyl peroxide (BP) and a range of different benzoquinones and hydroquinones. Supplemented DDA assays, in the presence of salt, lipid and blood, were also conducted. […] The exceptions were the thymoquinone assays, in which only 50 μg of the benzoquinone was used.

[7] = S. aureus ATCC 29213, Table 1 (Example 1)
[8] = P. acnes NCTC 737, Table 7 (Example 6)
[9] = Cutibacterium acnes, NCTC737, P. acnes NCTC 737 (resistance None), Table 9 (Example 8)
[10] = Cutibacterium acnes, NCTC737, P. acnes NCTC 737, Table 7 (Example 6)
[11] = Table 10 (Example 8), zone diameter
[12] = Staphylococcus aureus, ATCC29213, S. aureus ATCC 29213, Table 1 (Example 1), read-out: MBC
[13] = Cutibacterium acnes, NCTC737, P. acnes NCTC 737, Table 7 (Example 6), read-out: MIC
[14] = Cutibacterium acnes, NCTC737, P. acnes NCTC 737, Table 7 (Example 6), read-out: MBC

| SMILES | MIC [3, 8] [µg/mL] | MBC [1, 7] [µg/mL] | SDDA area increase [2] [%] | SDDA increase [2] [mm] | SDDA with BP [2] [mm] | MBC [4, 8] [µg/mL] | DDA ([5]; Table 7, zone diameter) [mm] | DDA + blood [6] [mm] | DDA + lipid [6] [mm] | DDA + salt [6] [mm] | other results |
| --- | --- | --- | --- | --- | --- | --- | --- | --- | --- | --- | --- |
| CC(C)(C)c1cc(O)ccc1O [TBHQ, t-butyl hydroquinone] | – | – | 169.30 | 26.77 | 68.54 | – | 9.95 | 10.89 | 31.44 | 54.16 | MBC ([1]; Staphylococcus aureus, ATCC29213, S. aureus ATCC 29213, Table 5 (Example 5)): 15.6 µg/mL (≈ 93.9 µM); MBC ([1]; Staphylococcus aureus, ATCC29213, S. aureus ATCC 29213, Table 1 (Example 1)): 7.8 µg/mL (≈ 46.9 µM); MIC [3, 9]: 7.8 µg/mL (≈ 46.9 µM); MIC [3, 10]: 7.8 µg/mL (≈ 46.9 µM); MBC [4, 9]: 15.6 µg/mL (≈ 93.9 µM); MBC [4, 10]: 15.6 µg/mL (≈ 93.9 µM); DDA [5, 11]: 8.65 (±0.31) mm; DDA ([5]; Table 11 (Example 9), mean of three replicates): 15.0 mm |
| O=C(OOC(=O)c1ccccc1)c1ccccc1 [benzoyl peroxide] | – | – | – | – | – | – | 24.25 | – | – | – | MBC ([1]; S. aureus ATCC 29213, Table 5 (Example 5)): 250 µg/mL (≈ 1030 µM); MBC [1, 12]: 250 µg/mL (≈ 1030 µM); MIC [3, 9]: 15.6 µg/mL (≈ 64.4 µM); MIC [3, 10]: 31.2 µg/mL (≈ 129 µM); MBC [4, 9]: 31.2 µg/mL (≈ 129 µM); MBC [4, 10]: 62.5 µg/mL (≈ 258 µM); DDA [5, 11]: 19.25 (±0.18) mm |
| O=C1C=CC(=O)C=C1 [p-benzoquinone] | – | – | 37.25 | 5.03 | 34.38 | – | 24.87 | 20.31 | 29.05 | 27.49 | MIC [3, 13]: 62.5 µg/mL (≈ 578 µM); MBC [4, 14]: 62.5 µg/mL (≈ 578 µM) |
| CC1=CC(=O)C(C(C)C)=CC1=O [thymoquinone, 2-iso-propyl-5-methyl-p-benzoquinone] | – | – | 120.91 | 7.60 | 23.24 | – | 27.46 | 0.0 | 18.99 | 20.54 | MBC [1, 12]: 15.6 µg/mL (≈ 95 µM); MIC [3, 13]: 15.6 µg/mL (≈ 95 µM); MBC [4, 14]: 31.2 µg/mL (≈ 190 µM) |

Further lines, with some results ahead:

| MIC [3, 8] [µg/mL] | SMILES | MBC [1, 7] [µg/mL] | SDDA area increase [2] [%] | SDDA increase [2] [mm] | SDDA with BP [2] [mm] | MBC [4, 8] [µg/mL] | DDA ([5]; Table 7, zone diameter) [mm] | DDA + blood [6] [mm] | DDA + lipid [6] [mm] | DDA + salt [6] [mm] | other results |
| --- | --- | --- | --- | --- | --- | --- | --- | --- | --- | --- | --- |
| 7.8 (≈ 56.5 µM) | Cc1c(O)ccc(O)c1C [2,3-dimethyl-p-hydroquinone] | 7.8 (≈ 56.5 µM) | 52.39 | 7.83 | 41.25 | 15.6 (≈ 113 µM) | 18.75 | 14.32 | 35.80 | 34.24 | – |
| 7.8 (≈ 56.5 µM) | CCc1cc(O)ccc1O [2-ethyl-p-hydroquinone] | 15.6 (≈ 113 µM) | 105.49 | 9.13 | 30.19 | 31.25 (≈ 226 µM) | 9.90 | 17.74 | 23.04 | 24.59 | – |
| >250 | Oc1ccc(O)cc1 [p-hydroquinone] | 62.5 (≈ 568 µM) | 210.15 | 14.42 | 33.36 | >250 | 0.0 | 14.01 | 15.56 | 16.61 | – |
